# Patent US20140081017A1, “Histone Deacetylase Inhibitors for Enhancing Activity of Antifungal Agents” (METHYLGENE INC., priority 2012, published 2014)
# Like-named read-outs stand apart in the source and are kept apart here.
# What was measured:
# [1] = system: Candida albicans; assay: Minimal Inhibitory Concentration (MIC) assay, broth microdilution per CLSI; assay type: cell-based; conditions: Candida albicans, read-out: Minimum Inhibitory Concentrations against Yeast Isolates, Candida albicans;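 further: two read times 24 hr and 48 hr of incubation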
# Procedure, shortened: (§1)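 Following CLSI procedure, compounds dissolved in DMSO on the assay day are diluted twofold and added to MOPS-buffered RPMI at pH 7.0. Saline suspensions of the yeasts, matched to 0.5 McFarland, are diluted 1:100 and inoculated, then plates incubate at 35° C for about 24-48 hr.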
# [2] = system: Candida glabrata; assay: as above; assay type: cell-based; conditions: Nakaseomyces glabratus, read-out: Minimum Inhibitory Concentrations against Yeast Isolates, Candida glabrata;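 further: two read times 24 hr and 48 hr of incubation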
# Procedure, shortened: as §1
# [3] = system: Candida parapsilosis; assay: as above; assay type: cell-based; conditions: Lodderomyces parapsilosis, read-out: Minimum Inhibitory Concentrations against Yeast Isolates, Candida parapsilosis;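 further: two read times 24 hr and 48 hr of incubation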
# Procedure, shortened: as §1
# [4] = system: C. glabrata; assay: Checkerboard FIC assay in combination with fluconazole (MIC alone and in combination, FICI); assay type: cell-based, Candida glabrata; conditions: for FICI of combination resulting in fluconazole MIC of: 2 ug/mL / FICI of combination resulting in fluconazole MIC of: 4 ug/mL / FICI of combination resulting in fluconazole MIC of: 8 ug/mL: FICI calculated using a fluconazole MIC of 16 μg/mL; for FICI of combination resulting in fluconazole MIC of: 2 ug/mL (value in parenthesis) / FICI of combination resulting in fluconazole MIC of: 4 ug/mL (value in parenthesis) / FICI of combination resulting in fluconazole MIC of: 8 ug/mL (value in parenthesis): FICI using a fluconazole MIC of 128 μg/mL; for MIC: Nakaseomyces glabratus; for Concentration of Methylgene compound to synergize fluconazole MIC to 2 ug/mL / Concentration of Methylgene compound to synergize fluconazole MIC to 4 ug/mL / Concentration of Methylgene compound to synergize fluconazole MIC to 8 ug/mL: in combination with fluconazole; for Concentration of Methylgene compound to synergize fluconazole MIC to 2 ug/mL: fluconazole MIC lowered to 2 ug/mL; for Concentration of Methylgene compound to synergize fluconazole MIC to 4 ug/mL: fluconazole MIC lowered to 4 ug/mL; for Concentration of Methylgene compound to synergize fluconazole MIC to 8 ug/mL: fluconazole MIC lowered to 8 ug/mL; for Multiple of compound MIC to synergize fluconazole MIC to 2 ug/mL / Multiple of compound MIC to synergize fluconazole MIC to 4 ug/mL / Multiple of compound MIC to synergize fluconazole MIC to 8 ug/mL: concentration in combination as multiple of the compound's MIC alone; for Multiple of compound MIC to synergize fluconazole MIC to 2 ug/mL: fluconazole MIC 2 ug/mL; for Multiple of compound MIC to synergize fluconazole MIC to 4 ug/mL: fluconazole MIC 4 ug/mL; for Multiple of compound MIC to synergize fluconazole MIC to 8 ug/mL: fluconazole MIC 8 ug/mL
# Procedure, shortened: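 C. glabrata was tested by CLSI broth microdilution checkerboard, crossing 2-fold dilutions of compound with 2-fold dilutions of fluconazole. The medium was RPMI with 0.165 M MOPS at pH 7.0, inoculated from a 0.5 McFarland suspension diluted 1:100, then incubated about 48 h at 35 °C. Single-agent MICs gave the FIC and FICI values.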
# [5] = 24 hr reading (first value of cell 24 hr/48 hr)
# [6] = 48 hr reading (second value of cell 24 hr/48 hr)
# [7] = MIC of the example compound alone against C. glabrata in the checkerboard assay, approximately 48 hr, read-out: Methylgene MIC
# [8] = test compound alone, C. glabrata, approx. 48 hr at 35° C., read-out: Compound MIC
SMILES,"MIC [1, 5] [µg/mL]","MIC [1, 6] [µg/mL]","MIC [2, 5] [µg/mL]","MIC [2, 6] [µg/mL]","MIC [3, 5] [µg/mL]","MIC [3, 6] [µg/mL]",FICI of combination resulting in fluconazole MIC of: 2 ug/mL ([4]; C. glabrata),FICI of combination resulting in fluconazole MIC of: 4 ug/mL ([4]; C. glabrata),FICI of combination resulting in fluconazole MIC of: 8 ug/mL ([4]; C. glabrata),FICI of combination resulting in fluconazole MIC of: 2 ug/mL (value in parenthesis) ([4]; C. glabrata),FICI of combination resulting in fluconazole MIC of: 4 ug/mL (value in parenthesis) ([4]; C. glabrata),FICI of combination resulting in fluconazole MIC of: 8 ug/mL (value in parenthesis) ([4]; C. glabrata),"MIC [4, 7] [µg/mL]","MIC [4, 8] [µg/mL]",Concentration of Methylgene compound to synergize fluconazole MIC to 2 ug/mL ([4]; C. glabrata) [µg/mL],Concentration of Methylgene compound to synergize fluconazole MIC to 4 ug/mL ([4]; C. glabrata) [µg/mL],Concentration of Methylgene compound to synergize fluconazole MIC to 8 ug/mL ([4]; C. glabrata) [µg/mL],Multiple of compound MIC to synergize fluconazole MIC to 2 ug/mL [4],Multiple of compound MIC to synergize fluconazole MIC to 4 ug/mL [4],Multiple of compound MIC to synergize fluconazole MIC to 8 ug/mL [4]
"Cn1cnc(CNC(=O)c2ccc(CCCCc3ccc(CC(=O)NO)cc3)cc2)c1 [Example 23, 4-(4-(4-(2-(hydroxyamino)-2-oxoethyl)phenyl)butyl)-N-((1-methyl-1H-imidazol-4-yl)methyl)benzamide]",> 8,> 8,8,> 8,> 8,> 8,0.313,0.250,0.375,0.266,0.156,0.188,> 8,> 8,4,2,2,–,–,–
"COCCOCCOCCOCCOCCOc1ccc(CCCCc2ccc(CC(=O)NO)cc2)cc1 [Example 10, 2-(4-(4-(4-(2,5,8,11,14-pentaoxahexadecan-16-yloxy)phenyl)butyl)phenyl)-N-hydroxyacetamide]",> 64,> 64,> 64,> 64,> 64,> 64,0.375,0.500,0.625,0.266,0.281,0.188,2,2,0.5,0.5,0.25,(¼x),(¼x),(⅛x)
"O=C(Cc1cnc(CCCCc2ccccc2)s1)NO [Example 2, N-hydroxy-2-(2-(4-phenylbutyl)thiazol-5-yl)acetamide]",64,64,> 64,> 64,64,64,0.375,0.500,0.625,0.266,0.281,0.188,16,16,4,4,2,(¼x),(¼x),(⅛x)
"O=C(Cc1ccc(CCCCc2cccc(NC(=O)CO)c2)cc1)NO [Example 41, N-hydroxy-2-(4-(4-(3-(2-hydroxyacetamido)phe-nyl)butyl)phenyl)acetamide]",> 32,> 32,4,16,> 32,> 32,0.563,0.375,0.500,0.516,0.281,0.313,16,16,8,4,4,(½x),(¼x),(¼x)
"O=C(Cc1ccc(CCCCc2ccc(F)cc2F)cc1)NO [Example 3, 2-(4-(4-(2,4-difluorophenyl)butyl)phenyl)-N-hydroxyacetamide]",0.5,0.5,0.5,0.5,0.25,0.5,0.563,0.625,0.490,0.516,0.531,0.303,0.5,0.5,0.25,0.25,0.12,(½x),(½x),(¼x)
"CN1CCN(CCNC(=O)Nc2cccc(CCCCc3ccc(CC(=O)NO)cc3)c2)CC1 [Example 49, N-hydroxy-2-(4-(4-(3-(3-(2-(4-methylpiperazin-1-yl)ethyl)ureido)phenyl)butyl)phenyl)acetamide]",> 64,> 64,16,> 64,> 64,> 64,0.188,0.250,0.313,0.141,0.156,0.125,> 16,> 16,4,4,2,–,–,–
